In patent publication US7994336B2, “Azetidine compounds as orexin receptor antagonists” (Actelion Pharmaceuticals Ltd., priority 2006, dated 2011):

Key:
human orexin-2 receptor = biological target: T1, human orexin-2 receptor (Homo sapiens, UniProt O43614); experiment: Intracellular calcium measurements (FLIPR), orexin receptor antagonistic activity; format: cell-based; details: CHO cells expressing human orexin-2 receptor; 10 nM orexin-A as agonist; fluo-3 AM calcium signal; read-out: OX2 IC50
T1 construct: expressed in transfected cells; host or cells: CHO cells (grown under G418 selection)
T1 sequence (O43614 1-444): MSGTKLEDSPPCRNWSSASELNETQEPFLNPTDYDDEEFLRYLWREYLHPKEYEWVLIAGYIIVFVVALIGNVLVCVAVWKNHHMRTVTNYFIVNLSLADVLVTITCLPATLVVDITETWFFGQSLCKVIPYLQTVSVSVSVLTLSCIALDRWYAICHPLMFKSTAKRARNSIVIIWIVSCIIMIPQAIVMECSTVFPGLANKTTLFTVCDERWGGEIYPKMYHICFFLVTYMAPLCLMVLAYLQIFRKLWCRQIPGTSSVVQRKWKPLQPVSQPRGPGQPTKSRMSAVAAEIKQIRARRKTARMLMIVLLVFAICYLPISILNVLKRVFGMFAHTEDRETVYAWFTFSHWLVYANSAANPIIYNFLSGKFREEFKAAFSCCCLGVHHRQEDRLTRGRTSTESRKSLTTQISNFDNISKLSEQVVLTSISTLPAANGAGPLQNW
Method: (§1) The orexin receptor antagonistic activity of the compounds of formula (I) is determined in accordance with the following experimental method.
(§2) Chinese hamster ovary (CHO) cells expressing the human orexin-1 receptor and the human orexin-2 receptor, respectively, are grown in culture medium (Ham F-12 with L-Glutamine) containing 300 μg/ml G418, 100 U/ml penicillin, 100 μg/ml streptomycin and 10% inactivated fetal calf serum (FCS). The cells are seeded at 80′000 cells/well into 96-well black clear bottom sterile plates (Costar) which have been precoated with 1% gelatine in Hanks' Balanced Salt Solution (HBSS). All reagents are from Gibco BRL. The seeded plates are incubated overnight at 37° C. in 5% CO2.
(§3) Human orexin-A as an agonist is prepared as 1 mM stock solution in methanol:water (1:1), diluted in HBSS containing 0.1% bovine serum albumin (BSA) and 2 mM HEPES for use in the assay at a final concentration of 10 nM.
(§4) Antagonists are prepared as 10 mM stock solution in DMSO, then diluted in 96-well plates, first in DMSO, then in HBSS containing 0.1% bovine serum albumin (BSA) and 2 mM HEPES.
(§5) On the day of the assay, 100 μl of loading medium (HBSS containing 1% FCS, 2 mM HEPES, 5 mM probenecid (Sigma) and 3 μM of the fluorescent calcium indicator fluo-3 AM (1 mM stock solution in DMSO with 10% pluronic acid) (Molecular Probes) is added to each well.
(§6) The 96-well plates are incubated for 60 min at 37° C. in 5% CO2. The loading solution is then aspirated and cells are washed 3 times with 200 μl HBSS containing 2.5 mM probenecid, 0.1% BSA, 2 mM HEPES. 100 μl of that same buffer is left in each well. Within the Fluorescent Imaging Plate Reader (FLIPR, Molecular Devices), antagonists are added to the plate in a volume of 50 μl, incubated for 20 min and finally 100 μl of agonist is added. Fluorescence is measured for each well at 1 second intervals, and the height of each fluorescence peak is compared to the height of the fluorescence peak induced by 10 nM orexin-A with buffer in place of antagonist. For each antagonist, IC50 value (the concentration of compound needed to inhibit 50% of the agonistic response) is determined.

human orexin-1 receptor = biological target: T2, human orexin-1 receptor (Homo sapiens, UniProt O43613); experiment: as above; format: cell-based; details: CHO cells expressing human orexin-1 receptor; 10 nM orexin-A as agonist; fluo-3 AM calcium signal; read-out: OX1 IC50
T2 construct: expressed in transfected cells; host or cells: CHO cells (grown under G418 selection)
T2 sequence (O43613 1-425): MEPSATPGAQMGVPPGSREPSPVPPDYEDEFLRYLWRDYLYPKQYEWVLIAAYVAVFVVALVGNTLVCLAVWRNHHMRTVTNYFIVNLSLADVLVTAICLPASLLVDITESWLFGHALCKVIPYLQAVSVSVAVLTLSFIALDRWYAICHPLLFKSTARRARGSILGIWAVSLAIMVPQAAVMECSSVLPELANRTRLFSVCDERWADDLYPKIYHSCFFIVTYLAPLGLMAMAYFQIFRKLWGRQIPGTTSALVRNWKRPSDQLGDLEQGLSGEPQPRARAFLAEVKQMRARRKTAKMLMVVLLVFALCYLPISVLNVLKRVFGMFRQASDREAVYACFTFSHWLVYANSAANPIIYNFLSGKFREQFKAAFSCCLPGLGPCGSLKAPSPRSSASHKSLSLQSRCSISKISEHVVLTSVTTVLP
Method: as §1, §2, §3, §4, §5, §6

IC50 (human orexin-2 receptor) [nM] | IC50 (human orexin-1 receptor) [nM] | Compound
13 | 3100 | Cc1cccc(-c2sc(C)nc2C(=O)N2CCC2CNC(=O)c2cccc3c2OCCN3C)c1 (racemic) [Example 54, (2RS)-4-Methyl-3,4-dihydro-2H-benzo[1,4]oxazine-8-carboxylic acid [1-(2-methyl-5-m-tolyl-thiazole-4-carbonyl)-azetidin-2-ylmethyl]-amide]
19 | 1200 | Cc1cccc(-c2sc(C)nc2C(=O)N2CCC2CNC(=O)c2cccc3c2OCCC3)c1 (racemic) [Example 57, (2RS)-Chroman-8-carboxylic acid [1-(2-methyl-5-m-tolyl-thiazole-4-carbonyl)-azetidin-2-ylmethyl]-amide]
122 | 88 | COc1ccccc1C(=O)N1CC[C@H]1CNC(=O)c1cccc2occc12 [Example 9, (2S)-benzofuran-4-carboxylic acid [1-(2-methoxy-benzoyl)-azetidin-2-ylmethyl]-amide]
66 | 196 | Cc1nc(C(=O)N2CCC2CNC(=O)c2c(C)nc3sccn23)c(-c2cccc(F)c2)s1 (stereo not drawn) [Example 11, (2RS)-6-Methyl-imidazo[2,1-b]thiazole-5-carboxylic acid{1-[5-(3-fluoro-phenyl)-2-methyl-thiazole-4-carbonyl]-azetidin-2-ylmethyl}-amide]
11 | 70 | Cc1ccc(-c2ccccc2C(=O)N2CC[C@H]2CNC(=O)c2cccc3occc23)cc1C [Example 15, (2S)-Benzofuran-4-carboxylic acid [1-(3′,4′-dimethyl-biphenyl-2-carbonyl)-azetidin-2-ylmethyl]-amide]
11 | 89 | COc1ccc(-c2sc(C)nc2C(=O)N2CCC2CNC(=O)c2c(C)nc3sccn23)cc1 (stereo not drawn) [Example 28, (2RS)-6-Methyl-imidazo[2,1-b]thiazole-5-carboxylic acid{1-[5-(4-methoxy-phenyl)-2-methyl-thiazole-4-carbonyl]-azetidin-2-ylmethyl}-amide]
406 | 1640 | Cc1cccc(-c2oc(C)nc2C(=O)N2CCC2CNC(=O)c2c(C)nc3sccn23)c1 (stereo not drawn) [Example 83, (2RS)-6-Methyl-imidazo[2,1-b]thiazole-5-carboxylic acid [1-5-(2-methyl-5-m-tolyl-oxazole-4-carbonyl)-azetidin-2-ylmethyl]-amide]

Further lines, the compound ahead of its results:

Compound | IC50 (human orexin-2 receptor) [nM] | IC50 (human orexin-1 receptor) [nM]
Cc1nc(C(=O)N2CCC2CNC(=O)c2c(C)nc3sccn23)c(-c2ccc(Cl)c(Cl)c2)s1 (racemic) [Example 32, (2RS)-6-Methyl-imidazo[2,1-b]thiazole-5-carboxylic acid{1-[5-(3,4-dichloro-phenyl)-2-methyl-thiazole-4-carbonyl]-azetidin-2-ylmethyl}-amide] | 25 | 75
Cc1cccc(-c2sc(C)nc2C(=O)N2CCC2CNC(=O)c2nc3scc(C)n3c2C)c1 (racemic) [Example 40, (2RS)-3,5-Dimethyl-imidazo[2,1-b]thiazole-6-carboxylic acid [1-(2-methyl-5-m-tolyl-thiazole-4-carbonyl)-azetidin-2-ylmethyl]-amide] | 39 | 11
Cc1cccc(-c2sc(C)nc2C(=O)N2CCC2CNC(=O)c2nc3sccn3c2C)c1 (racemic) [Example 42, (2RS)-5-Methyl-imidazo[2,1-b]thiazole-6-carboxylic acid [1-(2-methyl-5-m-tolyl-thiazole-4-carbonyl)-azetidin-2-ylmethyl]-amide] | 41 | 85
Cc1cccc(-c2sc(C)nc2C(=O)N2CCC2CNC(=O)c2c(C(F)(F)F)nc3sccn23)c1 (racemic) [Example 50, (2RS)-6-Trifluoromethyl-imidazo[2,1-b]thiazole-5-carboxylic acid [1-(2-methyl-5-m-tolyl-thiazole-4-carbonyl)-azetidin-2-ylmethyl]-amide] | 57 | 391
Cc1cccc(-c2sc(C)nc2C(=O)N2CCC2CNC(=O)c2cnc3scc(C)n23)c1 (racemic) [Example 61, (2RS)-3-Methyl-imidazo[2,1-b]thiazole-5-carboxylic acid [1-(2-methyl-5-m-tolyl-thiazole-4-carbonyl)-azetidin-2-ylmethyl]-amide] | 43 | 1920
Cc1cccc(-c2sc(C)nc2C(=O)N2CC[C@H]2CNC(=O)c2c(Cl)nc3sccn23)c1 [Example 21, (2S)-6-Chloro-imidazo[2,1-b]thiazole-5-carboxylic acid [1-(2-methyl-5-m-tolyl-thiazole-4-carbonyl)-azetidin-2-ylmethyl]-amide] | 7 | 41
Cc1cccc(-c2sc(N)nc2C(=O)N2CC[C@H]2CNC(=O)c2c(Cl)nc3sccn23)c1 [Example 22, (2S)-6-Chloro-imidazo[2,1-b]thiazole-5-carboxylic acid [1-(2-amino-5-m-tolyl-thiazole-4-carbonyl)-azetidin-2-ylmethyl]-amide] | 5 | 10
Cc1nc(C(=O)N2CCC2CNC(=O)c2c(C)nc3sccn23)c(-c2ccc(F)c(F)c2)s1 (stereo not drawn) [Example 67, (2RS)-6-Methyl-imidazo[2,1-b]thiazole-5-carboxylic acid{1-[5-(3,4-difluoro-phenyl)-2-methyl-thiazole-4-carbonyl]-azetidin-2-ylmethyl}-amide] | 102 | 2010
